Literature values, collected in US20190008973A1, “INTRALIPID-IODINE FOR IMAGING” (priority 2017, published 2019).
Like-named read-outs stand apart in the source and are kept apart here.

Tests used:
[1] = test system: propofol-mediated hypotension; details: cited from earlier work
hippocampal slices = details: cited from earlier work
[2] = test system: acetylcholinesterase (AChE) / neuronal degeneration; details: cited from earlier work; for serum AChE: rat, in vivo
free fatty acid efflux = details: cited from earlier work; for I/R-evoked FFA efflux: 20-min ischemia, 40 min reperfusion
[3] = test system: myocardial ischemia-reperfusion injury; details: cited from earlier work
[4] = test system: fallopian tube and adnexal tissue; details: cited from earlier work
[5] = test system: ischemia-reperfusion (IR) injury; details: cited from earlier work
mitochondrial ATPase = target: T1, mitochondrial ATPase (Homo sapiens, UniProt P06576+P25705); details: cited from earlier work; for kind of inhibition: reciprocal plots
T1 construct: mitochondrial ATPase prepared by the chloroform extraction method; from tissue; host or cells: mitochondria

[6] = target: T2, N-methyl-D-aspartate receptor channels (Mus musculus, UniProt P35438); details: cited from earlier work
T2 construct: cultured cortical neurons from the mouse; endogenous in cells; host or cells: cultured mouse cortical neurons

total spinal anesthesia = details: in vivo; cited from earlier work
[7] = test system: spinal cord ischemia and reperfusion; details: intravenous; cited from earlier work

T1 sequence (P25705 44-553): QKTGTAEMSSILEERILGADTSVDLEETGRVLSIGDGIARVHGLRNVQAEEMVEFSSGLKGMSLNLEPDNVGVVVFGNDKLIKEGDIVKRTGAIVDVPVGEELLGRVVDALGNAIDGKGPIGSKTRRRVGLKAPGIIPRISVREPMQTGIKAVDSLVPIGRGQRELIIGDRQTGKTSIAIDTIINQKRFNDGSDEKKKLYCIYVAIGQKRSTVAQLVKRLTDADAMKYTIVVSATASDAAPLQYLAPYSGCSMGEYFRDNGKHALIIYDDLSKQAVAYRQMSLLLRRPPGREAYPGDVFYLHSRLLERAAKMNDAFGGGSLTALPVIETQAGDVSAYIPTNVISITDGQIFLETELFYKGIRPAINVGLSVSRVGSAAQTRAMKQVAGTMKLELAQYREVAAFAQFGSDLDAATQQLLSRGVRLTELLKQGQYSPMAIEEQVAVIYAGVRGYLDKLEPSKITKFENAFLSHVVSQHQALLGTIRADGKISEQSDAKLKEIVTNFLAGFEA
T1 sequence (P06576 48-529): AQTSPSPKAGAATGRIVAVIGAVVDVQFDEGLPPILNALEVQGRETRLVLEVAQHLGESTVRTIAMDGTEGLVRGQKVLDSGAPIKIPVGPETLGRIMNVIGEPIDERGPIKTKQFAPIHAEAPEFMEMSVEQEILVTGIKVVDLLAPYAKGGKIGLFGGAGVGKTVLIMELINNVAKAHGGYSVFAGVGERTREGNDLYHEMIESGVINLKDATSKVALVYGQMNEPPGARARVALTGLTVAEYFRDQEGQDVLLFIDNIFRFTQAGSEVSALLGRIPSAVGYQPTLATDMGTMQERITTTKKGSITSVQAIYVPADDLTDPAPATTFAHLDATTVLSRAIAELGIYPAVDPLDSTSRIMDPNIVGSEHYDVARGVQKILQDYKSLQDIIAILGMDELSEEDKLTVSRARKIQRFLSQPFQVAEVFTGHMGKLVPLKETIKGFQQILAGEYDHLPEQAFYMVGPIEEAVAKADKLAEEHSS
T1 sequence (P36542 26-298 partner): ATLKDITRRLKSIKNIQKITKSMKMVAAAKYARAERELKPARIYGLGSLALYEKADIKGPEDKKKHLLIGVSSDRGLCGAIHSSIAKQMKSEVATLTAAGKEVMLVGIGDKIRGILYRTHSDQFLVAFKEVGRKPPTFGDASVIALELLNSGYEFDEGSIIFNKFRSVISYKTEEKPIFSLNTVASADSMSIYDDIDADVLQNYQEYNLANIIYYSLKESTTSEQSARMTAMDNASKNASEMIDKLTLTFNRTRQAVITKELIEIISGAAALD
T1 sequence (P30049 23-168 partner): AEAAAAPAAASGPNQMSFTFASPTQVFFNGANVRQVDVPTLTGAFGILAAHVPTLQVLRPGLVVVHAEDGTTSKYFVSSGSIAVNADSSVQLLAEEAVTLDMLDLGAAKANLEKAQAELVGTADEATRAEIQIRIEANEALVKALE
T1 sequence (P56381 2-51 partner limits assumed): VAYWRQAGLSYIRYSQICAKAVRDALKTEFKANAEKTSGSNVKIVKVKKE

Q: With 20% BSA as the compound, how does the “effect on propofol induced cortical burst suppression” value ([1]; EEG) read?
A: The value was −2+/−1%.

Q: For CCCCC/C=C\C/C=C\C/C=C\C/C=C\CCCC(=O)O [Arachidonic acid, 5,8,11,14-eicosateraenoic acid], which “protection from glutamate and H(2)O(2) injury” value (hippocampal slices; 1-10 microM) is on record?
A: Its value is “dose dependently protected”.

Q: Which “effect on neuroprotection by arachidonic acid” value (hippocampal slices) does the source give for CC(C)(c1ccc(OCC2CO2)cc1)c1ccc(OCC2CO2)cc1 (stereo not drawn) [BADGE, bisphenol A diglycidyl ether] here?
A: The value was “completely abolished”.

Q: For O=C(/C=C/c1ccc(O)c(O)c1)OCCc1ccccc1 [CAPE, caffeic acid phenethyl ester], which neuronal degeneration ([2]; histologic examination) is on record?
A: The neuronal degeneration was “significant effect on protection of neuronal degeneration”.

Q: And the “serum AChE” value [2]?
A: Its value is “inhibited AChE”.

Q: With O=C1CN(/N=C/c2ccc(-c3ccc([N+](=O)[O-])cc3)o2)C(O)=N1 [Dantrolene] as the compound, how does the “I/R-evoked FFA efflux” value (free fatty acid efflux) read?
A: Its value is “significantly inhibited I/R-evoked release of docosahexaenoic, arachidonic, linoleic and oleic acids”.

Q: With FC(F)OC(Cl)C(F)(F)F (stereo not drawn) [IS, isoflurane] as the compound, how does the plasma lactate dehydrogenase ([3]; 3 h after reperfusion, group C 676+/−82) read?
A: Its plasma lactate dehydrogenase is 456+/−58 U/L.

Q: What about the plasma creatine kinase ([3]; 3 h after reperfusion, group C 2373+/−529) of the same compound?
A: Its plasma creatine kinase is 1725+/−230 U/L.

Q: What about the “myocardial infarct size 3 h after reperfusion” value ([3]; group C 39%+/−6%) of the same compound?
A: The value was 20%+/−8%.

Q: With CNC(=O)c1c(I)c(NC(C)=O)c(I)c(C(=O)O)c1I.CNC[C@H](O)[C@@H](O)[C@H](O)[C@H](O)CO [Iothalamate meglumine 60%, iothalamate meglumine] as the compound, how does the “pathologic response in tube or peritoneal cavity” value (“pathologic response” for short) ([4]; rabbit, in vivo) read?
A: The value was “mild inflammatory infiltrate, mucosal edema, giant cell reaction, and periovarian adhesions”.

Q: Which “pathologic response” value ([4]; histology) does the source give for CC(=O)N(CC(O)CO)c1c(I)c(C(=O)NCCO)c(I)c(C(=O)NCC(O)CO)c1I (stereo not drawn) [Ioxilan, ioxilan] here?
A: Its value is “no pathologic response”.

Q: With Cn1cc(C2=C(c3ccc(Cl)cc3Cl)C(=O)NC2=O)c2ccccc21 [SB216763] as the compound, how does the “cardioprotection in sham-operated hearts exposed to IR” value ([5]; 1% ILP 15 min) read?
A: Its value is “conferred cardioprotection”.

Q: What about the “cardioprotection in hypertrophied myocardium” value [5] of the same compound?
A: Its value is “failed to exert cardioprotection”.

Q: With C/C=C(/C)C(=O)O[C@H]1C(C)=C2[C@H]([C@@H]1OC(=O)CCCCCCC)[C@@](C)(OC(C)=O)C[C@H](OC(=O)CCC)[C@@]1(O)[C@H]2OC(=O)[C@@]1(C)O [Thapsigargin] as the compound, how does the “FFA efflux in the absence of ischemia” value (free fatty acid efflux; rat, in vivo) read?
A: The value was “elicited significant elevations in the efflux of myristic, arachidonic and linoleic acids”.

Q: With C1CCC[C@H]2CCCN3CC[C@@H](CCCCCC[C@@H]4CCCN5CC[C@@H](CC1)O[C@@H]45)O[C@@H]23 [Xestospongin C] as the compound, how does the “I/R-evoked FFA efflux” value (free fatty acid efflux) read?
A: Its value is “failed to affect I/R-evoked FFA efflux”.

Q: Which “inhibition of the enzyme” value (mitochondrial ATPase) does the source give for CCOC(=O)c1ccc(N)cc1 [benzocaine] here?
A: The value was “inhibits the enzyme at all pH values”.

Q: For C[N+](C)(C)CC[N+]1(C)Cc2c(Cl)c(Cl)c(Cl)c(Cl)c2C1 [chlorisondamine], which “lowering of MAP” value ([1]; 2.5 mg/kg IV) is on record?
A: Its value is 56+/−3%.

Q: Which kind of inhibition (mitochondrial ATPase) does the source give for CN(C)CCCN1c2ccccc2Sc2ccc(Cl)cc21 [chlorpromazine] here?
A: The kind of inhibition was “non-competitive”.

Q: Which “serum AChE” value [2] does the source give for CCOP(=S)(OCC)Oc1nc(Cl)c(Cl)cc1Cl [chlorpyriphos, Chlorpyriphos] here?
A: Its value is “inhibited AChE”.

Q: Which kind of inhibition (mitochondrial ATPase) does the source give for CCCCOc1cc(C(=O)NCCN(CC)CC)c2ccccc2n1 [dibucaine] here?
A: Its kind of inhibition is “non-competitive”.

Q: With CNC(=O)c1c(I)c(NC(C)=O)c(I)c(C(=O)O)c1I.CNC[C@H](O)[C@@H](O)[C@H](O)[C@H](O)CO [iothalamate meglumine 30%, iothalamate meglumine] as the compound, how does the “pathologic response” value ([4]; rabbit, in vivo) read?
A: Its value is “no pathologic response”.

Q: Which “effect on emulsion-induced currents” value [6] does the source give for CNC1(c2ccccc2Cl)CCCCC1=O (stereo not drawn) [ketamine] here?
A: The value was “inhibited”.

Q: Which kind of inhibition (mitochondrial ATPase) does the source give for CCN(CC)CC(=O)Nc1c(C)cccc1C [lidocaine] here?
A: The kind of inhibition was “non-competitive”.

Q: What about the “further time to consciousness” value (total spinal anesthesia) of the same compound?
A: Its value is 80 min.

Q: What about the “time to spontaneous respiration” value (total spinal anesthesia) of the same compound?
A: The value was 45 min.

Q: For CCCC(C)C1(CC)C(=O)NC(=S)NC1=O (stereo not drawn) [thiopental], which injured animals [7] is on record?
A: Its injured animals is 100%.

Q: Which “I/R-evoked FFA efflux” value (free fatty acid efflux) does the source give for CN1CCN(CCCN2c3ccccc3Sc3ccc(C(F)(F)F)cc32)CC1 [trifluoperazine] here?
A: The value was “very effective in suppressing ischemia/reperfusion evoked release of all six FFAs”.

Q: With DL-AP5 as the compound, how does the “effect on emulsion-induced currents” value [6] read?
A: Its value is “inhibited”.

Q: Which “I/R-evoked FFA efflux” value (free fatty acid efflux) does the source give for Ryanodine here?
A: Its value is “significantly enhanced ischemia/reperfusion-elicited efflux of linoleic acid”.

Q: With picrotoxin as the compound, how does the “effect on emulsion-induced currents” value [6] read?
A: The value was “not affected”.
